Laboratory results published in patent publication US20230053297A1, “COMPOSITIONS AND METHODS TO INCREASE SERUM DILEUCINE LEVELS” (Ingenious Ingredients, LP, priority 2021, published 2023).

Test: Plasma dileucine pharmacokinetics after a single dose of leucine or whey protein isolate in healthy men
Details: male, human, in vivo
Protocol: Five healthy men between the ages of 18-50 years of age were recruited to participate in this study. Prior to beginning the study, all participants signed an informed consent document and complete a healthy history questionnaire to determine study eligibility.
All participants reported to the laboratory between 06:00-10:00 hours and observing an 8-10 hour fast. For the two days prior to testing, study participants were given a standardized meal plan to help control for changes in dietary intake prior to testing. Upon arrival, participants heart rate, blood pressure, body mass, height and body composition were measured using DEXA. Prior to body composition assessment, study participants were tested for appropriate hydration status. Using standard multiple sample phlebotomy approaches, approximately 10 mL of venous blood was collected from a forearm vein prior to being administrated a single dose of either leucine (2-gram dose) or whey protein isolate (25-gram dose). In a time course fashion, subsequent venous blood samples were collected 30, 60, 90, 120 and 240 minutes after ingestion of their assigned supplement. Participants were provided 250 mL of cold water to ingest after each blood collection. Study participants returned approximately 3-7 days after completion of the previous study visit to complete an identical testing session as previously described while receiving the alternative treatment.

AUC Dileucine: 37.1 ± 20.2 µM·h | Cmax: 610 ± 430 nM | increase of plasma dileucine levels compared to whey protein (as AUC): 40.5%
SMILES: CC(C)C[C@H](N)C(=O)O [leucine]
